In patent US8980874B2, “Method and composition for treating diabetic ketoacidosis” (Midwestern University, priority 2009, dated 2015):
Entries after “also recorded” stand apart in the source; their conditions may differ. Counter-ions that a name gives are not always drawn.

What was measured:
Format in all cases: in vivo
rat model of DKA [1] = assay: Plasma ET-1 level (Enzyme Immunometric Assay) in diabetic ketoacidosis rats
Method: In order to analyze the change in plasma ET-1 level during the treatment, blood samples were withdrawn through right femoral artery of the rats before and at the end of experiment and were collected into chilled EDTA tubes (1 mg/mL blood) containing aprotinin (500 KIU/mL of blood). The blood samples were centrifuged at 1,600×g for 15 minutes at 0° C. and plasma separated was stored at −70° C. until analyzed. ET-1 level was estimated using Assay's Design's Endothelin-1 Enzyme Immunometric Assay Kit (Nowicki et al., 2005; Brondani et al., 2007). Briefly, plasma samples and standards were added to wells coated with a monoclonal antibody specific for ET-1. The plate then was washed after 24 hours of incubation, leaving only bound ET-1 on the plate. A solution of horseradish peroxidase (HRP) labeled monoclonal antibody to ET-1 then was added, which binds to the ET-1 captured on the plate. The plate was incubated for 30 min, then washed to remove excess HRP labeled antibody. A solution of 3,3′,5,5′-tetramethylbenzidine (TMB) substrate was added, which generates a blue color when catalyzed by the HRP. Hydrochloric acid (1N) was added to stop the substrate reaction, and the resulting yellow color was read at 450 nm using DTX 800 Multimode detector. The data was analyzed with Multimode Detection Software (Beckman Coulter, Inc., Fullerton, Calif.). The measured optical density is directly proportional to the concentration of ET-1 in either standards/plasma. Blood samples from all the groups were collected before the start and at end of the treatment.
(§1) Group 4: Diabetic saline/insulin treated (D-Saline+insulin treated): Rats were injected with streptozotocin in citrate buffer (150 mg/kg ip) to induce diabetes and ketoacidosis. On day three, rats were treated with 1.5 U/kg regular insulin (Humulin® R (Regular human insulin, rDNA origin). On day four, saline and insulin treatment was carried out. Rats were infused via cannulated femoral vein saline, 0.9% NaCl at 80 mL/kg/hr and 1.5 U/kg/hr regular insulin for one hour. During the next two through four hours, rats were infused with saline, 0.9% NaCl at 40 mL/kg/hr and 1.5 U/kg/hr regular insulin (Yuen et al., 2008).
(§2) Group 5: Diabetic BMS-182874/saline/insulin treated (D-BMS+Saline+insulin treated): Rats were injected with streptozotocin in citrate buffer (150 mg/kg ip) to induce diabetes and ketoacidosis. On day three, rats were treated with 1.5 U/kg regular insulin. On day four, rats were administered a bolus dose of selective ETA receptor antagonist, BMS-182874 (9 mg/kg), then saline and insulin treatment was carried out. Rats were infused via cannulated femoral vein saline, 0.9% NaCl at 80 mL/kg/hr and 1.5 U/kg/hr regular insulin for one hour. During the next two through four hours rats were infused with saline, 0.9% NaCl at 40 mL/kg/hr and 1.5 U/kg/hr regular insulin.
(§3) Group 6: Diabetic BQ123/saline/insulin treated (D-BQ+saline+insulin treated): Same as above for Group 5, except BQ123 (1 mg/kg body weight) is used as a substitute for BMS-182874 (9 mg/kg).
(§4) Data are presented as mean±SEM. The significance of differences was estimated by one-way analysis of variance (intra group comparison with respect to base line data) and two-way analysis of variance (inter group comparison with respect to corresponding time points from each groups) followed by application of the Dunnett's Multiple Comparisons and Bonferroni test respectively. A P value of less than 0.05 was considered to be significant. The statistical analysis was processed with GraphPad Prism software Version 5.00.

rat model of DKA [2] = assay: Arterial blood gases, electrolytes, lactate and hematocrit in diabetic ketoacidosis rats; conditions: for arterial blood pH, Day 4 (pre-tx): instrument could not record pH below 6.80, mean±SEM
Source text: Arterial blood pH, pO2, pCO2, Na^+, K^+, lactate, and hematocrit were monitored prior to, at one hour, and at the end of treatment. Blood samples were drawn from the arterial cannula using blood gas sampling syringes (Innovative Medical Technologies, Inc. Leawood, Kans.) and analyzed using a GEM Premier 3000 unit (Instrument Laboratory, Lexington, Mass.). Blood samples were withdrawn from the femoral artery for baseline reading prior to start of treatment, after the first hour of treatment, and then at the end of the treatment (fifth hour of experiment).
as §1, §2, §3, §4

rat model of DKA [3] = assay: Cardiovascular parameters (MAP, pulse pressure, heart rate) in diabetic ketoacidosis rats
Source text: Rats were anaesthetized with urethane (1.5 g/kg ip.) and prepared for the determination of hemodynamic parameters (Gulati et al., 1997a; Gulati et al., 1997b). The anesthetized rats were shaved and immobilized to prepare for cannulation. A 2-3 centimeter (cm) incision was made above the femoral vein and artery and the vessels were dissected and cleaned. The left femoral vein was cannulated (PE-50 tubing, Clay Adams, Parsipanny, N.J.) and secured for drug administration. An ultra-miniature pressure transducer SPR-320 (2F Polyurethane), with a single pressure sensor side mounted at the tip (Millar Instruments, Houston, Tex.) was inserted in the left femoral artery to acquire the hemodynamic signals. Pressure transducer was connected to bridge amplifier (ML221 Bridge Amp; AD Instruments, Mountain View, Calif., USA) with Viking connector (AEC-10C) and the signals were continuously acquired at a sampling rate of 1000 S^−1 using Millar PowerLab 16/30 data acquisition system (AD Instruments, Mountain View, Calif., USA). Mean arterial pressure (MAP), heart rate (HR), and pulse pressure (PP) were determined and analyzed with LabChart-5.00 software program (Millar Instruments). After the experiment was completed, the animals were euthanized with a high dose of urethane (3 gm/kg).
as §1, §2, §3, §4

rat model of DKA [4] = assay: Brain blood perfusion (Laser Doppler Flowmetry) in diabetic ketoacidosis rats; conditions: day 4, FIG. 6, antagonist given with saline+insulin, result in words
Method: A burr hole was drilled into the rat skull approximately 2 millimeters (mm) to the left of midline, being careful not to disturb the brain tissue itself. Cerebrovascular perfusion was measured via a fiber optic probe (PF407) applied to the surface of the rat brain. The probe was connected to a Periflux PF2b 4000 Laser Doppler Flowmetry unit (Perimed, Stockholm, Sweden). The perfusion was determined by measuring the passage of red blood cells through the capillaries.
as §1, §2, §3, §4

[5] = day 4, BMS-182874+saline+insulin group
[6] = day 4, compared to diabetic untreated rats, result in words
[7] = saline+insulin, alone or after bolus BMS-182874 9 mg/kg or BQ123 1 mg/kg

## Cc1noc(NS(=O)(=O)c2cccc3c(N(C)C)cccc23)c1C [BMS-182874, (5-Dimethylamino)-N-(3,4-dimethyl-5-isoxazolyl)-1-naphthalene sulfonamide hydrochloride]
Rat model of DKA [1]; baseline before treatment, mean±SEM
  plasma ET-1, Day 4 (pre tx): 11.93 ± 2.01 pg/mL
Rat model of DKA [1]; day 4, result in words (Table 4, FIG. 9)
  effect of treatment on plasma ET-1 level: did not significantly affect plasma ET-1 level
Rat model of DKA [1]; saline+insulin, alone or after bolus BMS-182874 9 mg/kg or BQ123 1 mg/kg, mean±SEM
  plasma ET-1, Day 4 (end of tx): 20.40 ± 3.23 pg/mL
Rat model of DKA [2]; baseline, hydrochloride
  arterial blood pH, Day 4 (pre-tx): 6.82±0.02
Rat model of DKA [2]; baseline, listed as BMS, hydrochloride
  arterial blood pH, Day 4 (pre-tx): 6.82 ± 0.02
Rat model of DKA [2]; baseline, mean±SEM
  arterial blood pCO2, Day 4 (pre-tx): 28.71 ± 2.08 mmHg
  arterial blood pO2, Day 4 (pre-tx): 156.71 ± 7.11 mmHg
  blood K+ level, Day 4 (pre-tx): 4.21 ± 0.33 mmol/L
  blood Na+ level, Day 4 (pre-tx): 135.71 ± 2.06 mmol/L
  blood hematocrit (Hct), Day 4 (pre-tx): 45.71 ± 1.48%
Rat model of DKA [2]; [5]
  blood K+ levels, after treatment (to): 2.75 ± 0.27 mM
  blood K+ levels, before treatment (from): 4.21 ± 0.33 mM
Rat model of DKA [2]; day 4, antagonist given with saline+insulin, result in words
  effect of treatment on arterial blood pH (acidosis): produced a significant improvement in arterial blood pH
Rat model of DKA [2]; [6]
  effect of treatment on blood K+ levels: significantly reduced the change in blood K^+ levels
  effect of treatment on blood lactate levels: significantly reduced the change in blood lactate levels
  effect of treatment on hematocrit: significantly reduced the hematocrit
Rat model of DKA [2]; [7]
  arterial blood pCO2, Day 4 (1 hour of tx): 30.57 ± 1.94 mmHg
  arterial blood pCO2, Day 4 (end of tx): 30.57 ± 2.23 mmHg
  arterial blood pO2, Day 4 (1 hour of tx): 135.57 ± 6.37 mmHg
  arterial blood pO2, Day 4 (end of tx): 143.85 ± 6.59 mmHg
  blood K+ level, Day 4 (1 hour tx): 2.62 ± 0.29 mmol/L
  blood K+ level, Day 4 (end of tx): 2.75 ± 0.27 mmol/L
  blood Na+ level, Day 4 (1 hour of tx): 143.42 ± 1.84 mmol/L
  blood Na+ level, Day 4 (end of tx): 146.14 ± 1.14 mmol/L
  blood hematocrit (Hct), Day 4 (1 hour of tx): 33.28 ± 1.52 %
  blood hematocrit (Hct), Day 4 (end of tx): 29.28 ± 2.22 %
Rat model of DKA [2]; saline+insulin, alone or after bolus BMS-182874 9 mg/kg or BQ123 1 mg/kg, instrument floor 6.80
  arterial blood pH, Day 4 (1 hour of tx): 6.81 ± 0.01
Rat model of DKA [2]; saline+insulin, alone or after bolus BMS-182874 9 mg/kg or BQ123 1 mg/kg, instrument floor 6.80, hydrochloride
  arterial blood pH, Day 4 (end of tx): 6.91±0.02
Rat model of DKA [2]; saline+insulin, alone or after bolus BMS-182874 9 mg/kg or BQ123 1 mg/kg, instrument floor 6.80, listed as BMS, hydrochloride
  arterial blood pH, Day 4 (end of tx): 6.91 ± 0.02
Rat model of DKA [3]; day 4, FIG. 3, antagonist given with saline+insulin, result in words
  effect on mean arterial pressure: stabilized the arterial pressure
Rat model of DKA [3]; day 4, FIG. 4, antagonist given with saline+insulin, result in words
  effect on pulse pressure: stabilized the pulse pressure
Rat model of DKA [3]; day 4, FIG. 5, antagonist given with saline+insulin, result in words
  effect on heart rate: did not produce any decrease in heart rate compared to baseline
Rat model of DKA [3]; day 4, result in words
  effect on insulin induced hypertension: prevented development of insulin induced hypertension
Rat model of DKA [4]; hydrochloride
  effect on cerebral blood perfusion: significantly blocked; also recorded: prevented
Rat model of DKA [4]; listed as BMS182874, hydrochloride
  effect on cerebral blood perfusion: prevented an insulin induced increase in cerebral blood perfusion
